The values below come from US20230391774A1, “Novel Compounds” (AC Immune SA, priority 2020, published 2023).

Counter-ions that a name gives are not always drawn. Some results are limits rather than exact numbers.

For assay [1], the target named is T1, Tau K18 fragment aggregates (amino acids 244 to 372 of human Tau441) (Homo sapiens, UniProt P10636).
T1 construct: encompassing amino acids 244 to 372 of the longest isoform (2N4R) of human Tau441; purchased Biotechne; host or cells: bacteria
The assay is described as follows: Tau K18 disaggregation assay by ThT. It counts as biochemical. Conditions: ThT fluorescence; 2 μM K18 aggregates, 30 minutes at RT. The method, then: Tau K18 Disaggregation Assay by ThT
The Tau K18 fragment, encompassing amino acids 244 to 372 of the longest isoform (2N4R) of human Tau441, was expressed in bacteria and purified (Biotechne). For the K18 disaggregation assay by ThT, 35 μM of recombinant K18 in PBS were aggregated for 24 hours at 37° C. in presence of 25 μM of heparin (Sigma-Aldrich) and 10 mM of 1,4-Dithiothreito (DTT from Sigma-Aldrich) under shaking at 750 RPM. Compound 1 was dissolved in anhydrous dimethyl sulfoxide (DMSO, Sigma-Aldrich) to reach a concentration of 10 mM. K18 aggregates and serial dilutions of compounds were mixed together in PBS (volume 50 μL) to a final concentration of 2 μM of K18 aggregates and from 400 to 0.1 μM of Compound 1. The mixture was incubated for 30 minutes at room temperature (RT), then 40 μL of this mixture were transferred into a black 384-well plate assay (Perkin-Elmer) and mixed with 10 μL of 100 μM ThT in 250 mM glycine (both from Sigma-Aldrich) in PBS. Fluorescence (relative fluorescence units; RFU) was measured in monoplicate or duplicate on a Tecan reader (excitation: 440 nm; emission: 485 nm). Percentage of K18 disaggregation was then calculated and half maximal effective concentration (EC50) was determined using GraphPad Prism version 8 (GraphPad Software) assuming a one-binding site fitting model, see Table 3 and Table 4.

For assay [2], the target named is T2, flTau aggregates (longest isoform of human Tau, 2N4R) (Homo sapiens, UniProt P10636).
T2 construct: 35 μM of recombinant full-length (fl) Tau in phosphate-buffered saline (PBS) were aggregated; purchased Biotechne; host or cells: bacteria
Nature of the assay: Full-length Tau (flTau) disaggregation assay by Thioflavin T (ThT). It counts as biochemical. Conditions: ThT fluorescence; 60 nM flTau aggregates, 30 minutes at RT; read-out: flTau disaggregation EC50. The method, boiled down: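 Recombinant 2N4R Tau (35 μM) pre-aggregated 72 h at 37 °C with 35 μM heparin and 10 mM DTT under shaking. Aggregates (60 nM final) incubated 30 min at RT in PBS with compound (20–0.0012 μM), then ThT added; fluorescence read at ex 440/em 485 nm and EC50 fitted to one-site model.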

T2 sequence (P10636 1-441 isoform P10636-8): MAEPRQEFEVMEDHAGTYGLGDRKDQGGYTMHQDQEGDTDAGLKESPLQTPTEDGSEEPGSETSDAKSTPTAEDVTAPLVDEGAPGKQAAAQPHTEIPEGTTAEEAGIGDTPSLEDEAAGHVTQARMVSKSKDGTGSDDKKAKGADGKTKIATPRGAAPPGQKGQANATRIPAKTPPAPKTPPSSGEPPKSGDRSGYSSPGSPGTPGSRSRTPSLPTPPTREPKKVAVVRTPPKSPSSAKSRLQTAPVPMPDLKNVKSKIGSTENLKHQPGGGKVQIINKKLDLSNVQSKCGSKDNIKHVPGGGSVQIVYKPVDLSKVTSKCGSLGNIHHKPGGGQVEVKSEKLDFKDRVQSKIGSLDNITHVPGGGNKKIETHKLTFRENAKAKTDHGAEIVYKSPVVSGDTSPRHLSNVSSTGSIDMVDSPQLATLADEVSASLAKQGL
T1 sequence (P10636 561-689): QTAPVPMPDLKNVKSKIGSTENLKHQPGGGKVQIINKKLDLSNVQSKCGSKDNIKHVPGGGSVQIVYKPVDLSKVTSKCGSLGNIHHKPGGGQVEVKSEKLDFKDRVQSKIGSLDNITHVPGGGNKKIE

With `c1ccc2c(C3CCN(c4ccc5oc(N6CCOCC6)nc5c4)C3)n[nH]c2c1` (centres unmarked) [Example 38, 5-(3-(1H-indazol-3-yl)pyrrolidin-1-yl)-2-morpholinobenzo[d]oxazole], the half-maximal effective concentration (EC50) in assay [1] and in assay [2] was 1 to 10 µM each time.

Regarding `c1ccc2c(C3CCN(c4ccc5nc(N6CCOCC6)sc5c4)CC3)n[nH]c2c1` [Example 44, 4-(6-(4-(1H-indazol-3-yl)piperidin-1-yl)benzo[d]thiazol-2-yl)morpholine], the EC50 in assay [1] and in assay [2] was 1 to 10 µM in each case.

As for `c1ccc2c(C3CCN(c4cc5sc(N6CCOCC6)nc5cn4)CC3)n[nH]c2c1` [Example 35, 4-(6-(4-(1H-indazol-3-yl)piperidin-1-yl)thiazolo[4,5-c]pyridin-2-yl)morpholine], the EC50 in assay [1] and in assay [2] was 1 to 10 µM each time.

As to `Cn1cc(C#Cc2ccc3oc(N4CCOCC4)nc3c2)c2cc(F)cnc21` [Example 46, 5-((5-fluoro-1-methyl-1H-pyrrolo[2,3-b]pyridin-3-yl)ethynyl)-2-morpholinobenzo[d]oxazole], the EC50 in assay [1] and in assay [2] was 1 to 10 µM each time.

Regarding `O=C(Nc1c[nH]c2ccccc12)c1ccc2oc(N3CCOCC3)nc2c1` [Example 7, N-(1H-indol-3-yl)-2-morpholinobenzo[d]oxazole-5-carboxamide], the concentration for a half-maximal effect (EC50) in assay [1] and in assay [2] was under 1 µM throughout.

`Cn1cc(C2=CCN(c3ccc4oc(N5CCOCC5)nc4c3)CC2)c2cc(F)cnc21` [Example 32, 5-(4-(5-fluoro-1-methyl-1H-pyrrolo[2,3-b]pyridin-3-yl)-3,6-dihydropyridin-1(2H)-yl)-2-morpholinobenzo[d]oxazole]: the values for the 50% effective concentration (EC50) in assay [1] and in assay [2] were 1 to 10 µM and under 1 µM, respectively.

As for `Cn1cc(C2CCN(c3ccc4nc(N5CCOCC5)oc4c3)CC2)c2cc(F)cnc21` [Example 111, 6-(4-(5-fluoro-1-methyl-1H-pyrrolo[2,3-b]pyridin-3-yl)piperidin-1-yl)-2-morpholinobenzo[d]oxazole hydrochloride], the concentration giving a half-maximal response (EC50) in assay [1] and in assay [2] was 1 to 10 µM throughout.

Consider `Cn1cc(C2CCN(c3ccc4oc(N5CCOCC5)nc4c3)C2)c2cc(F)cnc21` (centres unmarked) [Example 33, 5-(3-(5-fluoro-1-methyl-1H-pyrrolo[2,3-b]pyridin-3-yl)pyrrolidin-1-yl)-2-morpholinobenzo[d]oxazole], for which the EC50 in assay [1] and in assay [2] was 1 to 10 µM throughout.

`Cn1cc(C2CCN(c3cnc4nc(N5CCOCC5)sc4c3)CC2)c2cc(F)cnc21` [Example 109, 4-(6-(4-(5-fluoro-1-methyl-1H-pyrrolo[2,3-b]pyridin-3-yl)piperidin-1-yl)thiazolo[4,5-b]pyridin-2-yl)morpholine hydrochloride]: the EC50 in assay [1] lay in the range of 10 to 50 µM; in assay [2], 1 to 10 µM.

In the case of `c1ccc2c(-c3cnn(-c4ccc5oc(N6CCOCC6)nc5c4)c3)c[nH]c2c1` [Example 9, 5-(4-(1H-indol-3-yl)-1H-pyrazol-1-yl)-2-morpholinobenzo[d]oxazole], the EC50 in assay [1] and in assay [2] was under 1 µM each time.

`c1cnc2[nH]cc(C3CCN(c4ccc5oc(N6CCOCC6)nc5c4)CC3)c2c1` [Example 20, 5-(4-(1H-pyrrolo[2,3-b]pyridin-3-yl)piperidin-1-yl)-2-morpholinobenzo[d]oxazole]: the concentration for a half-maximal effect (EC50) in assay [1] was 1 to 10 µM; in assay [2], under 1 µM.

With `c1ccc2c(C3CCN(c4ccc5oc(N6CCOCC6)nc5n4)CC3)n[nH]c2c1` [Example 43, 5-(4-(1H-indazol-3-yl)piperidin-1-yl)-2-morpholinooxazolo[4,5-b]pyridine], the EC50 in assay [1] and in assay [2] was 1 to 10 µM each time.

For `c1ccc2c(C3CCN(c4cnc5nc(N6CCOCC6)oc5c4)CC3)n[nH]c2c1` [Example 47, 6-(4-(1H-indazol-3-yl)piperidin-1-yl)-2-morpholinooxazolo[4,5-b]pyridine], the EC50 in assay [1] was 10 to 50 µM; in assay [2], 1 to 10 µM.

Take `c1ccc2c(C3CCN(c4ccc5oc(N6CCOCC6)nc5c4)CC3)c[nH]c2c1` [Example 19, 5-(4-(1H-indol-3-yl)piperidin-1-yl)-2-morpholinobenzo[d]oxazole]: the EC50 in assay [1] and in assay [2] was 1 to 10 µM throughout.

Turning to `c1ccc2c(C3CCN(c4cc5sc(N6CCOCC6)nc5cn4)CC3)c[nH]c2c1` [Example 24, 4-(6-(4-(1H-indol-3-yl)piperidin-1-yl)thiazolo[4,5-c]pyridin-2-yl)morpholine], the EC50 in assay [1] and in assay [2] was under 1 µM in each case.

Regarding `COc1ccc2c(C3CCN(c4ccc5oc(N6CCOCC6)nc5c4)CC3)c[nH]c2n1` [Example 104, 5-(4-(6-methoxy-1H-pyrrolo[2,3-b]pyridin-3-yl)piperidin-1-yl)-2-morpholinobenzo[d]oxazole], the EC50 in assay [1] and in assay [2] was 1 to 10 µM each time.

As for `C1=C(c2n[nH]c3ccccc23)CCN(c2ccc3oc(N4CCOCC4)nc3c2)C1` [Example 50, 5-(4-(1H-indazol-3-yl)-3,6-dihydropyridin-1(2H)-yl)-2-morpholinobenzo[d]oxazole], the EC50 in assay [1] and in assay [2] was under 1 µM each time.

`c1ccc2c(C3CCN(c4ccc5oc(N6CCOCC6)nc5c4)C3)n[nH]c2c1` (centres unmarked) [Example 37, 5-(3-(1H-indazol-3-yl)pyrrolidin-1-yl)-2-morpholinobenzo[d]oxazole]: the values for the EC50 in assay [1] and in assay [2] were under 1 µM and 1 to 10 µM, respectively.

Consider `Cn1cc(C2CCN(c3ccc4oc(N5CCOCC5)nc4c3)CC2)c2cc(F)ccc21` [Example 51, 5-(4-(5-fluoro-1-methyl-1H-indol-3-yl)piperidin-1-yl)-2-morpholinobenzo[d]oxazole], for which the values for the EC50 in assay [1] and in assay [2] were 10 to 50 µM and 1 to 10 µM, respectively.

Consider `Cn1cc(C2CCN(c3cc4sc(N5CCOCC5)nc4cn3)CC2)c2cc(F)cnc21` [Example 110, 4-(6-(4-(5-fluoro-1-methyl-1H-pyrrolo[2,3-b]pyridin-3-yl)piperidin-1-yl)thiazolo[4,5-c]pyridin-2-yl)morpholine hydrochloride], for which the EC50 in assay [1] lay in the range of 10 to 50 µM; in assay [2], 1 to 10 µM.

Consider `c1ccc2c(C3CCN(c4cnc5nc(N6CCOCC6)sc5c4)CC3)n[nH]c2c1` [Example 41, 4-(6-(4-(1H-indazol-3-yl)piperidin-1-yl)thiazolo[4,5-b]pyridin-2-yl)morpholine], for which the EC50 in assay [1] and in assay [2] was 1 to 10 µM each time.

For the molecule `c1ccc2c(Nc3ccc4oc(N5CCOCC5)nc4c3)n[nH]c2c1` [Example 36, N-(1H-indazol-3-yl)-2-morpholinobenzo[d]oxazol-5-amine], the half-maximal effective concentration (EC50) is 10 to 50 µM in assay [1] and 1 to 10 µM in assay [2].

For `O=C(Nc1ccc2nc(N3CCOCC3)sc2c1)c1c[nH]c2ccc(F)cc12` [Example 17, 5-fluoro-N-(2-morpholinobenzo[d]thiazol-6-yl)-1H-indole-3-carboxamide], the values for the EC50 in assay [1] and in assay [2] were 1 to 10 µM and under 1 µM, respectively.

`O=C(Nc1ccc2nc(N3CCOCC3)oc2c1)c1c[nH]c2ccccc12` [Example 14, N-(2-morpholinobenzo[d]oxazol-6-yl)-1H-indole-3-carboxamide]: in assay [1], the EC50 fell in the range of 10 to 50 µM.
